Data on two compounds can be found in patent publication US20260374739A1, “SMALL MOLECULAR WEIGHT CHEMICAL COMPOUND TO ANTAGONIZE EPH-EPHRIN TETRAMERIZATION AND INHIBIT BIDIRECTIONAL SIGNALING” (THE BOARD OF REGENTS OF THE UNIVERSITY OF TEXAS SYSTEM, priority 2022, published 2026).

Where “and” joins values, the source holds several entries; their conditions need not be identical. Equal entries are not always repeated.

Experiment [1] concerns the target T1, EphrinB2-EphB1 (Homo sapiens, UniProt P54762).
T1 construct: soluble human EphB1-His, EphB2-His, and EphB4-His ectodomains; commercially available human EphrinB1-Fc (EB1), EphrinB2-Fc (EB2), and EphrinB3-Fc (EB3) ectodomain proteins; purchased
T1 sequence (P54762 18-540 limits assumed): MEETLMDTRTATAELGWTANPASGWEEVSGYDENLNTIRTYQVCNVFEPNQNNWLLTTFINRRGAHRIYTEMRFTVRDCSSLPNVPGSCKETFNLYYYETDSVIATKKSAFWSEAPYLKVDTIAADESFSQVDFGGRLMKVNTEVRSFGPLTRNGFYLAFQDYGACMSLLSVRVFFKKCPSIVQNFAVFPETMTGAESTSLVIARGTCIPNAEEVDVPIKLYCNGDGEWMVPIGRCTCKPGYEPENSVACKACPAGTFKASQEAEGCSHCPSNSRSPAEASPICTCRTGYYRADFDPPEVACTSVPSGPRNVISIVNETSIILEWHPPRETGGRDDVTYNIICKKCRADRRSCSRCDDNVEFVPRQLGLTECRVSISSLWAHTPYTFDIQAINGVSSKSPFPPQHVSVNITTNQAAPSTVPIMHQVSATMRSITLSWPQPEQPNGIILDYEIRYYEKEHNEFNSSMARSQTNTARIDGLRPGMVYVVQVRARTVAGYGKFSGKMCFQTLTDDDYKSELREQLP
In words: Octet 80 sec association/500 sec dissociation, immobilized human EphrinB2-Fc binding to soluble human EphB1-His. The conditions noted are these: immobilized human EphrinB2, 25 nM soluble human EphB1; for EphB1 Inhibition Percent, Inhibition of Association ONLY: at 3.2 μM and 80 seconds; for EphB1 Inhibition Percent, Inhibition of Association-Dissociation: at 3.2 μM and 580 seconds. On the procedure: In another experiment, whether certain A20 analogs might have specificity for different Eph receptors was tested. An Octet RED384 system was used to obtain biophysical ON-OFF binding data (association-dissociation) for the three different human EphrinB2-EphB1, EphrinB2-EphB2, and EphrinB2-EphB4 protein-protein interactions and to assess the effect of A20 chemicals on the binding kinetics.
FIGS. 72A-72C show three example Octet sensorgram response traces for the immobilized human EphrinB2 ectodomain protein binding to soluble forms of the human EphB1, EphB2, and EphB4 ectodomain proteins, in the absence or presence of an A20 chemical (buffer conditions are always PBSTD:PBS with 0.05% Tween-20, 1% DMSO, and +/− indicated chemical). After loading EphrinB2-Fc protein to Octet AHC biosensors, washing, and obtaining stable baseline measurements in the appropriate PBSTD (either with or without indicated chemical), the sensors are placed in its buffer that also contains the indicated soluble EphB protein for the association step (0-80″), and then returned to its buffer for the dissociation step (81″-580″). In each figure (FIGS. 72A-72C), a sensorgram run using 10 μM of the 2×HCl salt form of A20-I is compared to the no compound control run to exemplify the maximum level of reduced response signal typically obtained with a potent A20 chemical.
Because the response levels during the dissociation step plateau for the EphrinB2-EphB2 and EphrinB2-EphB1 interactions by the first 80″, AUCs were also calculated for run data encompassing the first 160″ of each experiment to account for both the 80″ association data (red asterisks) and the first 80″ of dissociation data (marked by green line and asterisks).
The selectivity of another A20 analog (a 3×HCL salt form of compound BQPB4) in comparison to previously tested compound, A20-1, was tested as described in Example 27 above.
Further to the experiments listed above, a series of dose-response experiments were conducted to determine the IC50 of a selected A20 chemical (A20-1) on the kinetics of human EphrinB2 ligand ectodomain protein binding to its cognate human EphB1, EphB2, and EphB4 receptor ectodomain proteins. FIG. 74A-74C are representative sensorgrams showing the effect of 0, 0.1, 0.2, 0.4, 0.8, 1.6, and 3.2 μM, concentrations of the 2×HCl salt of A20-I along with a 10 μM max standard (also A20-1) on three different Ephrin-EphB interactions (e.g., EphB1 in FIG. 74A, EphB2 in FIG. 74B and EphB4 in FIG. 74C). […] Additional IC50 values were determined at specific timepoints, at 75″ into the association step and at 55″ into the dissociation step (135″).
All absolute and relative IC50 values are provided in the Table 6 below, where absolute are based off the full binding sensorgram traces, and relative are based off of the max control traces.
In another experiment, the % inhibition for various A20 analog chemicals against the three different EphrinB2-EphB protein interactions was determined. Specifically, the percent inhibition for immobilized human EphrinB2-Fc binding to 25 nM soluble human EphB1-His (FIG. 76A, enlarged in FIG. 76D), EphB2-His (FIG. 76B, enlarged in FIG. 76E), and EphB4-His (FIG. 76C, enlarged in FIG. 76F) with 3511-I, 8009-9255, QTM-Br, A19, A19-NO2, and IM (all at 3.2 μM) was determined.
For orientation: BLI is a label-free optical method that tracks binding on a fibre tip over time.

The target in experiment [2] is T2, EphrinB2-EphB2 (Homo sapiens, UniProt P29323).
T2 construct: soluble human EphB1-His, EphB2-His, and EphB4-His ectodomains; commercially available human EphrinB1-Fc (EB1), EphrinB2-Fc (EB2), and EphrinB3-Fc (EB3) ectodomain proteins; purchased
T2 sequence (P29323 19-543 limits assumed): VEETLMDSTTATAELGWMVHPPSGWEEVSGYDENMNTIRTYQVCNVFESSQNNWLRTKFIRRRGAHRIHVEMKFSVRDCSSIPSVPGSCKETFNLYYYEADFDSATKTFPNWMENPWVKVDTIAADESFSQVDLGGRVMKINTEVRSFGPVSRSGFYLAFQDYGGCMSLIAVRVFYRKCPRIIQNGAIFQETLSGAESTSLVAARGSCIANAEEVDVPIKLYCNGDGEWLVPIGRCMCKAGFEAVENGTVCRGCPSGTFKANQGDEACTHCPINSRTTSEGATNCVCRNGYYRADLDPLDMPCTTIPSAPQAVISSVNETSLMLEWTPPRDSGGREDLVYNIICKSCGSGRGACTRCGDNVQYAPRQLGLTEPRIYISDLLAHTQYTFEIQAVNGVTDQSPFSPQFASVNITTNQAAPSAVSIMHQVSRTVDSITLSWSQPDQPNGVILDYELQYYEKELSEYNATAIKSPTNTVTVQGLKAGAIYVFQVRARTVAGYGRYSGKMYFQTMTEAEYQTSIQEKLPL
Briefly: Octet 80 sec association/500 sec dissociation, immobilized human EphrinB2-Fc binding to soluble human EphB2-His. The settings on record: immobilized human EphrinB2, 25 nM soluble human EphB2; for EphB2 Inhibition Percent, Inhibition of Association ONLY: at 3.2 μM and 80 seconds; for EphB2 Inhibition Percent, Inhibition of Association-Dissociation: at 3.2 μM and 580 seconds. The gist of the method:
(§1)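 EphrinB2-Fc captured on AHC biosensors, then soluble His-tagged EphB ectodomain (25 nM for % inhibition runs) associated 80 s and dissociated 500 s in PBS, 0.05% Tween-20, 1% DMSO ± compound. Compounds tested at 0.1–3.2 μM with a 10 μM max standard; IC50 from AUC of full traces or at 75 s and 135 s.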

Experiment [3] has as its target T2, EphrinB2-EphB2. Briefly: Octet tetramerization inhibition, immobilized human EphrinB2 binding to 50 nM soluble human EphB2. The settings on record: EphrinB2-EphB2.
In experiment [4] the target is T3, EphrinB2-EphB4 (Homo sapiens, UniProt P54760).
T3 construct: soluble human EphB1-His, EphB2-His, and EphB4-His ectodomains; commercially available human EphrinB1-Fc (EB1), EphrinB2-Fc (EB2), and EphrinB3-Fc (EB3) ectodomain proteins; purchased
T3 sequence (P54760 16-539 limits assumed): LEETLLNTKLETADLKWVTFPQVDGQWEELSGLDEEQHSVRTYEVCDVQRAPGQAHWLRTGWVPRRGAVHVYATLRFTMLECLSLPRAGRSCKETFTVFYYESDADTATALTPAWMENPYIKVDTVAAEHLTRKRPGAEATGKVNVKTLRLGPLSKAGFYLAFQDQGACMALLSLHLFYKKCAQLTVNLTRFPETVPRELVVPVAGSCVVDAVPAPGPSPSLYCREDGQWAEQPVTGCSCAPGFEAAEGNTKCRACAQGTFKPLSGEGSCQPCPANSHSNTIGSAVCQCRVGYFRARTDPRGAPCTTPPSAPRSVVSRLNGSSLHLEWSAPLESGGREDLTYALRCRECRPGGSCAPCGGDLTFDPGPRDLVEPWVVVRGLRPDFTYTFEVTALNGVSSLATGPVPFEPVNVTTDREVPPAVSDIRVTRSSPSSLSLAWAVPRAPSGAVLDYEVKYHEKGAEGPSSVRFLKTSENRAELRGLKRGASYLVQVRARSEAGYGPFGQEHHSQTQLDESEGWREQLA
Briefly: Octet 80 sec association/500 sec dissociation, immobilized human EphrinB2-Fc binding to soluble human EphB4-His. The settings on record: immobilized human EphrinB2, 25 nM soluble human EphB4; for EphB4 Inhibition Percent, Inhibition of Association ONLY: at 3.2 μM and 80 seconds. The method in brief: as §1

Where [5] appears, read: Absolute Association IC50 (300 sec), Table A.
Setting [6] is: Absolute Dissociation IC50 (450 sec), Table A.
Setting [7] is: Relative AUC/IC50, Table A, compound 7: association only.
The mark [8] stands for this setting: Relative Association IC50 (300 sec), Table A.
[9] abbreviates: Relative Dissociation IC50 (450 sec), Table A.

With `O=S1(=O)CCN(Cc2cc(I)c(O)c3ncccc23)CC1` [Compound 19, 4-((8-hydroxy-7-iodoquinolin-1-ium-5-yl)methyl)thiomorpholin-4-ium 1,1-dioxide chloride], in experiment [1], the “EphB1 Inhibition Percent, Inhibition of Association ONLY” value was 33.9%. Also, the “EphB1 Inhibition Percent, Inhibition of Association-Dissociation” value in experiment [1] is given as 50.1%. For the same compound, in experiment [2], the “EphB2 Inhibition Percent, Inhibition of Association ONLY” value was determined as 53.7%. For the same compound, the “EphB2 Inhibition Percent, Inhibition of Association-Dissociation” value in experiment [2] was found to be 71.4%. The IC50 (as a rule, the concentration that gives 50% inhibition) is more than 1600 nM in experiment [3] (Absolute AUC/IC50, Table A); 1600 nM in experiment [3] (setting [5]); 1410 nM in experiment [3] (setting [6]); 690 nM in experiment [3] (setting [7]); 830 nM in experiment [3] (setting [8]); 810 nM in experiment [3] (setting [9]). For the same compound, in experiment [4], the “EphB4 Inhibition Percent, Inhibition of Association ONLY” value amounted to 12.9%. In addition, the “EphB4 Inhibition Percent, Inhibition of Association-Dissociation” value in experiment [4] (at 3.2 μM and 580 seconds) amounted to 36.2%.

For `O=[N+]([O-])c1cc(CN2CCS(=O)(=O)CC2)c2cccnc2c1O` [Compound 21, 4-((8-hydroxy-7-nitroquinolin-1-ium-5-yl)methyl)thiomorpholin-4-ium 1,1-dioxide chloride], the “EphB1 Inhibition Percent, Inhibition of Association ONLY” value in experiment [1] is 24.0% and 23.8%. Also, in experiment [1], the “EphB1 Inhibition Percent, Inhibition of Association-Dissociation” value was 36.0% and 28.9%. Moreover, the “EphB2 Inhibition Percent, Inhibition of Association ONLY” value in experiment [2] is 36.7% and 57.0%. The “EphB2 Inhibition Percent, Inhibition of Association-Dissociation” value in experiment [2] is 51.7% and 69.2%. For the same compound, the IC50 in experiment [3] (Absolute AUC/IC50, Table A) is 1150 nM and 1950 nM; in experiment [3] (setting [5]), 1740 nM; in experiment [3] (setting [6]), 1700 nM; in experiment [3] (setting [7]) it was ~1000 nM and 890 nM; in experiment [3] (setting [8]), 910 nM; in experiment [3] (setting [9]) it was 1070 nM and 1000 nM. Besides, the “EphB4 Inhibition Percent, Inhibition of Association ONLY” value in experiment [4] was 0% and 4.3%.
